# Measurements taken from PubChem BioAssay AID449750 (Broad Institute, 2010).
# Calls of active or inactive are those of the source. The rule behind the calls is not given here.
# Assay: non-covalent RecA intein splicing inhibitors, dose response, biochemical, cell-free, fluorescence, secondary screen (AID 449750)
row,Compound,AC50
1,COC(=O)c1c(NC(=O)/C=C/C(=O)O)sc(Cc2ccccc2)c1C,2.33 µM
2,C[n+]1c2ccccc2nc2ccc(NCCO)cc21,10.1 µM
3,C/C(=C\c1ccco1)C1C(C#N)=C(N)Oc2n[nH]c(-c3ccccc3)c21 (centres undefined),20.8 µM
4,CCOC(=O)c1c(CCl)nc2ccccc2c1-c1ccccc1,8.34 µM
5,CCCC1C(C#N)=C(N)Oc2n[nH]c(C(C)(C)C)c21 (centres undefined),1.7 µM
6,CC(C)[n+]1ccn(C2=C([O-])c3ccccc3C(=O)/C2=N\S(=O)(=O)c2ccccc2)c1,8.08 µM
7,COC(=O)c1[nH]c(=O)c2ccccc2c1O,12.1 µM
8,Oc1cnn(-c2ccccc2)c1,> 38 µM (inactive)
9,CCOC1(OCC)C(c2ccc(Cl)cc2)C(C#N)(C#N)C1(OCC)OCC (centres undefined),> 38 µM (inactive)
10,Cc1cccc(N(Cc2cc(=O)[nH]c3ccccc23)C(=O)CCl)c1,6.83 µM
11,CC1=C(CC(=O)c2ccccc2)C(=O)c2ccccc2C1=O,16.6 µM
12,Cc1[nH]n(-c2ccccc2)c(=O)c1C(c1cccc([N+](=O)[O-])c1O)c1c(C)[nH]n(-c2ccccc2)c1=O,1.72 µM
13,COc1ccc(S(=O)(=O)c2cnc3ccccc3n2)cc1,> 38 µM (inactive)
14,N#CC1=C(N)Oc2n[nH]c(-c3ccc(F)cc3)c2C1c1cccc(OC(=O)N2CCOCC2)c1 (centres undefined),26.2 µM
15,Cc1cc(Br)c2c(c1)/C(=C/C(=O)c1cccs1)C(=O)N2,> 38 µM (inactive)
16,Cc1c([N+](=O)[O-])cnc(Sc2ccccc2)c1[N+](=O)[O-],1.23 µM
17,Cc1[nH]nc2c1C(c1ccsc1C)C(C#N)=C(N)O2 (centres undefined),> 38 µM (inactive)
18,CCOc1cc(C(c2c(C)[nH][nH]c2=O)c2c(C)[nH][nH]c2=O)cc([N+](=O)[O-])c1O,13.1 µM
19,Cc1ccc(N(CCC#N)C(=O)CCl)cc1C,11.5 µM
20,O=C(N/N=C/c1c(O)n(C2CCCCC2)c(=S)[nH]c1=O)c1ccccc1O,4.36 µM
21,Cc1[nH][nH]c(=O)c1C(c1ccc(F)cc1)c1c(C)[nH][nH]c1=O,11.9 µM
22,COc1ccc(-c2cc(=O)[nH][nH]2)cc1,8.39 µM
23,CC(C)(C)c1ccc(/C=C(\c2nc3ccccc3[nH]2)S(=O)(=O)c2ccccc2)cc1,39.1 µM
24,CC1=NN(c2ccccc2)C(=O)/C1=C/c1cccs1,9.94 µM
25,COc1ccc(N2C(=O)C(Cl)=C(Oc3cccc(OC)c3)C2=O)cc1,> 38 µM (inactive)
26,Nc1cc2nn(-c3ccccc3)nc2cc1Cl,7.05 µM
27,CCO/C=C1/C(=O)N(Cc2ccccc2)C(=O)c2ccccc21,> 38 µM (inactive)

row,Compound,AC50
1,Cc1ccc(S(=O)(=O)Nc2ccc(O)c3ccccc23)c(C)c1,0.409 µM
2,CC1=C(C)/C(=N\OS(=O)(=O)c2ccccc2)C=CC1=O,> 38 µM (inactive)
3,CCN(CC)S(=O)(=O)c1ccc(N2CCN(S(=O)(=O)c3ccccc3C#N)CC2)nc1,> 38 µM (inactive)
4,O=C(NC1=C(Nc2ccc(F)cc2)C(=O)c2ccccc2C1=O)c1ccc(Cl)cc1,13.6 µM
5,COc1ccc(C(=O)n2nnc3ccccc32)cc1Br,> 38 µM (inactive)
6,Cc1ccc(C(C[N+](=O)[O-])c2c(C)[nH]n(-c3ccccc3)c2=O)cc1 (centres undefined),5.5 µM
7,CCc1ccc(Nc2n[n+](-c3ccccc3)c(-c3c(Cl)cccc3Cl)s2)cc1,8.26 µM
8,c1ccc(CCNCc2cccs2)cc1,> 38 µM (inactive)
9,Cc1[nH][nH]c(=O)c1[C@@H](c1ccccc1[N+](=O)[O-])C(C#N)C#N,> 38 µM (inactive)
10,O=S(=O)(Nc1cc2nc3ccccc3nc2n1Cc1ccccc1)c1ccc(Cl)cc1,5.18 µM
11,CCCCCCCN(C(=O)CCl)c1ccccc1C,1.89 µM
12,Cc1noc2ncnc(Sc3ccccc3Cl)c12,> 38 µM (inactive)
13,Cc1c(C#N)c(NC(=O)CCl)n(Cc2ccc(F)cc2)c1C,3.69 µM
14,Cc1cccc(CN2CCN(C(=O)CCl)CC2)c1,34.1 µM
15,CC(C)(C)Nc1nc(Cl)nc(N(C#N)CN2C(=O)c3ccccc3S2(=O)=O)n1,> 38 µM (inactive)
16,COC(=O)C1=NN(C(C)=O)C2(CC(=O)N(c3cc(C)cc(C)c3)C2=O)C1 (centres undefined),> 38 µM (inactive)
17,COc1ccc(C(=O)Nc2ccncc2)cc1[N+](=O)[O-],> 38 µM (inactive)
18,Cc1sc2ncnc(Sc3nnnn3-c3ccccc3)c2c1C,> 38 µM (inactive)
19,Cc1ccc(SCc2[nH]nc3c2C(c2ccc(C)o2)C(C#N)=C(N)O3)cc1 (centres undefined),> 38 µM (inactive)
20,Cc1nnc(Sc2cc(NCCO)c([N+](=O)[O-])c3nonc23)s1,> 38 µM (inactive)
21,Clc1ncnc2scc(C3COc4ccccc4O3)c12 (centres undefined),7.28 µM
22,N=C1/C(=C\c2ccc(OC(=O)c3ccc(F)cc3)cc2)C(=O)N=C2SC(N3CCOCC3)=NN12,> 38 µM (inactive)
23,OC(COC(c1ccc(Cl)cc1)c1ccc(Cl)cc1)CN1CCc2ccccc2C1 (centres undefined),3.84 µM
24,COc1cc(NCCCCCCCN)c2ncccc2c1,13.6 µM
25,Oc1ccc(/C=N/Nc2ccc(C(F)(F)F)cn2)c(O)c1,> 38 µM (inactive)
26,O=C(NC(=C(Cl)Cl)S(=O)(=O)c1ccc(Cl)cc1)c1ccccc1,4.78 µM
27,CCCCCCCCCCOC(=O)Cn1c(COc2ccccc2OC)[n+](C)c2ccccc21,7.46 µM
